Test results taken from patent publication US9486471B2, “Combination therapy for the treatment of cancer” (McMaster University, priority 2012, dated 2016).

What was measured:
Format in all cases: cell-based, human
primary AML cells = experiment: Methocellulose blast colony formation of primary AML cells (Example 2); settings: 10 μM; control about 22; at least 14 days
Description: Normal HSCs and progenitors were sourced from either mobilized peripheral blood or umbilical cord blood of health patients. Primary AML cells were taken from patients diagnosed with AML. Both normal HSCs and primary AML cells were cultured under standard in vitro methocellulose assay conditions (see http://www.stemcell.com/en/Products/All-Products/MethoCult-H4434-Classic.aspx as well as Clinton Campbell et al. The human stem cell hierarchy is defined by a functional dependence on Mcl-1 for self-renewal capacity. Blood 116 (9) 1433-1442 (Jun. 4, 2010), hereby incorporated by reference) for at least 14 days before the number of colonies were recorded.

[1] = test system: p53 and p21 in neoplastic hPSCs; experiment: p53 and p21 accumulation in neoplastic hPSCs; settings: 24 h; 10 μM etoposide, 10 μM thioridazine, BMP4
Source text: Antibodies. Antibodies used for immunocytochemistry were the following: Oct3/4 (BD Trunsduction Laboratories, cat#611203), Sox2 (R&D, cat#AF2018). To detect human hematopoietic cells, Pacific Blue-, PE-, APC- or FITC labeled anti-human CD45 was used (BD Biosciences). FITC anti-CD33, PE anti-CD13, FITC anti-CD41a, FITC anti-HLA DR, and PE anti-CD19 antibodies were obtained from BD Pharmingen. PE anti-CD14, PE anti-CD15 and PE anti-GlyA were acquired from Immunotech Beckman Coulter. To determine pluripotency, PE anti-SSEA3 (BD Biosciences) and PE- or AlexaFluor488 anti-Oct4 (BD Biosciences). Rabbit anti-human dopamine receptor antibodies; DRD1 (Cat#324390), DRD2 (Cat#324393), DRD3 (Cat#324402), DRD4 (Cat#324405) and DRD5 (Cat#324408) were sourced from EMD Chemical. Anti-rabbit Alexa-Fluor-488 (Molecular Probes) was used as the secondary antibody. Primary anti-p53 (Cat#2527) and anti-p21 (Cat#2947) rabbit IgG sourced from Cell Signaling Technology were used to stain fixed and permeabilized cells. Anti-rabbit alexa-Fluor-546 (Molecular Probes) was used as the secondary antibody.

[2] = test system: v1H9-Oct4-GFP neoplastic hPSC; experiment: Chemical screening of neoplastic hPSC reporter line (GFP / Hoechst, loss of pluripotency)
Description: In Vitro Culture Platform for Normal and Neoplastic hPSCs. Chemical screens involved v1H9-Oct4-GFP cells seeded at 5,000 cells per well in mouse embryonic fibroblast conditioned media (MEFCM) supplemented with 8 ng/ml bFGF. 24 hours later the media was exchanged for MEFCM with compounds at 10 μM and 0.1% DMSO, 0.1% DMSO (−BMP4) or 100 ng/ml of BMP4 and 0.1% DMSO (+BMP4) for 48 hours before being exchanged with fresh media with compound for a further 24 h (total compound treatment time 72 h) prior to being fixed and prepared for automated imaging and plate reader analysis. Confluent H9 & fibroblast-derived iPSC were seeded at 10,000 cells per well in MEFCM supplemented with 8 ng/ml bFGF. 24 hours later the cells were treated with compounds at 10 μM and 0.1% DMSO, 0.1% DMSO (−BMP4) or 100 ng/ml of BMP4 and 0.1% DMSO (+BMP4). Fresh MEFCM supplemented with compounds was exchanged daily for 5 days. On day 5, hPSC's were fixed and prepared for automated imaging and plate reader analysis. See supplementary experimental procedures for further details.
Imaging Neoplastic hPSC. Cells were fixed in 2% paraformaldehyde and stained with 10 μg/mL Hoechst 33342 (Invitrogen) with a Combi Multidrop Dispenser (Thermo). For experiments that involved Oct4 immunocytochemistry, a monoclonal antibody for Oct4 (BD) was used along with an Alexa-Fluor-647 secondary (Invitrogen). Immunocytochemical staining was performed by a Janus automated liquid handler (Perkin Elmer). Images were acquired at 10× N.A with an Arrayscan HCS VTI Reader (Cellomics) by means of epi-fluorescence illumination and standard filter sets.
Image Analysis. Image analysis was performed using custom scripts in Acapella software (Perkin Elmer). Nuclear objects were segmented from the Hoechst signal. For neoplastic cell lines, object intensity analysis was performed on GFP positive cells only. For normal cell lines, the fraction of Alexa-Fluor-647-positive cells was quantified. Images and well-level data were stored and analysed in a Columbus Database (Perkin Elmer) and further data analysis, compounds registration and hit identification in ActivityBase (IDBS).
These Collections have been previously scrutinized in numerous other mammalian cell lines (Diallo et al., 2010; Shoemaker, 2006).

[3] = test system: AML-OCI2 and AML-OCI3 cell lines; experiment: Volumetric cell counting of AML cell lines treated with DR antagonists and agonists; settings: 72 h, serum-free conditions
Description: AML/HPSC Cell Culture. AML cell lines, namely, OCI-AML2 (M4), OCI-AML3 (M4), HL-60 (M2) and MV-4-11(M5) were cultured in RPMI (Gibco) supplemented with 5% heated-inactivated FBS (HyClone). For DR agonist studies with R(+)-7-Hydroxy-DPAT hydrobromide (Sigma), serum-free conditions were employed instead due to the prevalence of dopamine in FBS (Little et al., 2002).
Volumetric Cell Counting. The number of AML-OCI2 and AML-OCI3 cells present after 72 h treatment with DR antagonists (FIG. 16b) and agonist (FIG. 16c-d) were counted by measuring the number of events within a fixed volume following the grating strategy defined by forward scatter and side scatter clustering, 7AAD− and Hoechst+.
Due to the bioavailability of dopamine in fetal bovine serum (FBS) (Little et al., 2002), serum-free conditions were employed to assess the role of DRs in AML.

With CSc1ccc2c(c1)N(CCC1CCCCN1C)c1ccccc1S2 (racemic) [thioridazine, 10-{2-[(RS)-1-Methylpiperidin-2-yl]ethyl}-2-methylsulfanylphenothiazine] the “number of CFU colonies of AML cells” value (primary AML cells) was 1.6 blast colonies, the “accumulation of cell stress marker p53” value [1] was “no accumulation” and the “accumulation of p21” value [1] was “no accumulation”. The “hit in extended screen (loss of pluripotency)” value ([2]; 2446 compound screen, reduced mean GFP intensity and cell count) was “hits”, the activity at 10 µM ([2]; Homo sapiens, 10 μM, 590 compound screen, read-out: Hoechst % residual activity (% RA)) was > 30% and the “number of AML cells” value [3] was “reduced the number of AML cells”.
